{"source": "patent US20240335444A1", "about": "“MODULATORS OF BCL6 PROTEOLYSIS AND ASSOCIATED METHODS OF USE” (Arvinas Operations, Inc., priority 2023, published 2024)", "key": {"OCI-Ly10": {"test_system": "OCI-Ly10", "test": "Tumor growth of DLBCL cell line derived xenograft model OCI-Ly10", "assay_type": "in vivo, mice", "conditions": "po 3, 10 or 30 mg/kg bid×28 or 30 mg/kg qd×28, dosing dependent", "procedure": "Mice bearing subcutaneous tumors were orally (po) administered vehicle or Compound A at 3, 10, or 30 mg/kg bi-daily for 28 days (bid×28) or 30 mg/kg daily for 28 days (qd×28). Dosing began with tumors at an average of 190 mm^3. […] FIG. 10C depicts tumor lysate BCL6 protein levels 16-hours post-last dose analyzed by western blotting. Individual tumor BCL6 levels are shown in a scatter plot, mean is represented by the bar, determined by densitometry, normalized to GAPDH loading controls, and shown as a percentage of vehicle. Percent BCL6 degradation (%) relative to vehicle is shown above each arm. Statistical analyses were performed using 2-way ANOVA: p<0.05 (*), p<0.0001 (****). Error bars represent standard error of the mean (±SEM)."}, "LY3148": {"test_system": "LY3148", "test": "PDX model of Burkitt's lymphoma (LY3148)", "assay_type": "in vivo, NOD/SCID or BALB/c Nude Mice", "conditions": "30 mg/kg PO QD×21", "procedure": "(§1) HuPrime® Lymphoma Xenograft Models in NOD/SCID or BALB/c Nude Mice, 4/group, were dosed orally (per os, PO) daily for 21 days (QD×21) and tumor measurements were acquired twice per week. […] Data points represent the mean per group and error bars the standard error of the mean."}, "[1]": {"test": "Body weight of mice in the PDX models", "assay_type": "in vivo, NOD/SCID or BALB/c Nude Mice", "conditions": "30 mg/kg PO QD×21", "procedure": "as §1"}, "BCL6 protein [2]": {"molecular_target": "T1, BCL6 protein (Homo sapiens, UniProt P41182)", "test": "Tumor lysate BCL6 protein levels in OCI-Ly7 xenograft (western blotting)", "assay_type": "in vivo, mice", "parameters": "from tissue; host or cells: subcutaneous xenograft tumors of OCI-Ly1, OCI-Ly7, SU-DHL-2 or OCI-Ly10 cells in mice", "conditions": "16-hours post-last dose (FIG. 8C)", "procedure": "(§2) Mice bearing subcutaneous tumors were orally (po) administered vehicle or Compound A at 1, 3, 10, or 30 mg/kg daily for 13 days (qd×13). Dosing began with tumors at an average of 130 mm^3. […] FIG. 8C depicts tumor lysate BCL6 protein levels 16-hours post-last dose analyzed by western blotting. Individual tumor BCL6 levels are shown in a scatter plot, mean is represented by the bar, determined by densitometry, normalized to GAPDH loading controls, and shown as a percentage of vehicle. Percent BCL6 degradation (%) relative to vehicle is shown above each arm. Statistical analyses were performed using 2-way ANOVA: p<0.0001 (****). Error bars represent standard error of the mean (±SEM)."}, "LY12962": {"test_system": "LY12962", "test": "PDX model of NHL NOS (LY12962)", "assay_type": "in vivo, NOD/SCID or BALB/c Nude Mice", "conditions": "30 mg/kg PO QD×21", "procedure": "as §1"}, "BCL6 protein [3]": {"molecular_target": "T1, BCL6 protein", "test": "Tumor lysate BCL6 protein levels in OCI-Ly1 xenograft tumor tissue (western blotting, densitometry)", "assay_type": "in vivo, mice", "parameters": "from tissue; host or cells: subcutaneous xenograft tumors of OCI-Ly1, OCI-Ly7, SU-DHL-2 or OCI-Ly10 cells in mice", "procedure": "Tumor lysate BCL6 protein levels in OCI-Ly1 cell line xenograft tumor tissue was measured following a treatment time-course with Compound A. A single dose of Compound A was orally administered in a vehicle of 40% hydroxypropyl-b-cyclodextrin in pH 3.0 citrate buffer when tumors reached 200-400 mm^3. Tumors were harvested at the indicated timepoints. Tumor tissue lysates were analyzed using western immunoblotting procedures and densitometry. BCL6 levels are normalized to a GAPDH loading control and presented as a percentage (%) of the average of BCL6 levels in the vehicle control group. Percent BCL6 degradation (%) relative to vehicle is shown above each arm. Cells (1×10^7 cells in 50% matrigel+50% RMPI-1640 (phenol red-free)/100 μl/mouse) were implanted on the right flank subcutaneously.\nMice bearing subcutaneous tumors were orally (po) administered vehicle or Compound A at 1, 3, or 10 mg/kg bi-daily for 23 days (bid×23). Dosing began with tumors at an average of 170 mm^3. […] FIG. 7C depicts tumor lysate BCL6 protein levels 16-hours post-last dose analyzed by western blotting. Individual tumor BCL6 levels are shown in a scatter plot, mean is represented by the bar, determined by densitometry, normalized to GAPDH loading controls, and shown as a percentage of vehicle. Percent BCL6 degradation (%) relative to vehicle is shown above each arm. Statistical analyses were performed using 2-way ANOVA: p<0.0001 (****). Error bars represent standard error of the mean (±SEM)."}, "LY6934": {"test_system": "LY6934", "test": "PDX model of DLBCL, ABC/GCB (LY6934)", "assay_type": "in vivo, NOD/SCID or BALB/c Nude Mice", "conditions": "30 mg/kg PO QD×21, compared to vehicle", "procedure": "as §1"}, "SU-DHL-2": {"test_system": "SU-DHL-2", "test": "Tumor growth of DLBCL cell line derived xenograft model SU-DHL-2", "assay_type": "in vivo, mice", "conditions": "SU-DHL-2 xenograft, po 3, 10 or 30 mg/kg bid×27 or 30 mg/kg qd×27; dosing dependent", "procedure": "as §2, with “at” for “at 1,”, “mg/kg bi-daily for 27 days (bid×27) or 30 mg/kg” for “mg/kg”, “27” for “13”, “(qd×27).” for “(qd×13).”, “180” for “130”, “9C” for “8C”"}}, "data": [{"smiles": "CNC(=O)COc1cc2cc(Nc3nc(N4CCC(O[C@H]5C[C@H](N6CCC(c7ccc8c(c7F)CN(C7CCC(=O)NC7=O)C8=O)CC6)C5)CC4)ncc3Cl)ccc2n(C(C)C)c1=O", "note": "(stereo partly shown) [Compound A, 2-({6-[(5-chloro-2-{4-[(1r,3r)-3-{4-[2-(2,6-dioxopiperidin-3-yl)-4-fluoro-1-oxo-2,3-dihydro-1H-isoindol-5-yl]piperidin-1-yl}cyclobutoxy]piperidin-1-yl}pyrimidin-4-yl)amino]-2-oxo-1-(propan-2-yl)-1,2-dihydroquinolin-3-yl}oxy)-N-methylacetamide]", "values": [{"measurement": "Tumor growth", "setting": "OCI-Ly10", "result": "inhibits the tumor growth"}, {"measurement": "Change in mean tumor volume", "setting": "LY3148", "result": "tumor regressions"}, {"measurement": "Body weight loss", "setting": "[1]", "result": "No significant body weight loss"}, {"measurement": "Tumor lysate BCL6 protein level", "setting": "BCL6 protein [2]", "result": "dose-dependent degradation of BCL6 protein"}, {"measurement": "Change in mean tumor volume", "setting": "LY12962", "result": "tumor regressions"}, {"measurement": "Tumor lysate BCL6 protein level", "setting": "BCL6 protein [3]; bid×23, 16-hours post-last dose (FIG. 7C)", "result": "dose-dependent degradation of BCL6 protein"}, {"measurement": "Time BCL6 protein was kept down", "setting": "BCL6 protein [3]; single oral dose (FIG. 5)", "result": "up to 36 hours"}, {"measurement": "Tumor lysate BCL6 protein level", "setting": "BCL6 protein [3]; single oral dose, time-course (FIG. 5)", "result": "degraded BCL6 protein rapidly"}, {"measurement": "Change in mean tumor volume", "setting": "LY6934", "result": "tumor regression"}, {"measurement": "Tumor growth", "setting": "SU-DHL-2", "result": "inhibits the tumor growth"}]}]}
